Source: patent US6969702B2, “Compounds and methods for increasing neurogenesis” (priority 2002, dated 2005)
Where two headings read alike, the source gives them in different places. Marks after values point to notes of the source that are not given here. Bridge positions count the residues as written; N and C are the ends. Peptide text beside a SMILES is read from it.

How the values were obtained:
Adult neural stem cells = experiment: Flow cytometry for early neuronal marker Doublecortin; conditions: Table 6; for % Doublecortin-positive cells: 4 days; for Fold Induction (Doublecortin-positive cells): vs EGF/FGF
[1] = test system: mouse adult neural stem cells; experiment: ATP-assay: proliferation (ATP levels) of neurosphere-derived cells
[2] = test system: NFAT-Luciferace reporter (Ca^2+); conditions: Table 4; for NFAT Luciferace units: 24 hours after induction; for Fold Induction NFAT: vs vehicle
[3] = test system: cAMP activation in mouse adult neural stem cells; experiment: cAMP detection (HitHunter EFC Cyclic AMP Chemiluminescence Assay); conditions: Table 2; for Fold Induction cAMP: vs vehicle
[4] = Table 2, 10 nM, 4 days, vs vehicle

Compound	% Doublecortin-positive cells (Adult neural stem cells; 100 nM)	Fold Induction (Doublecortin-positive cells) (Adult neural stem cells; 100 nM)	ATP (nM ATP/well) ([1]; Table 2, 10 nM, 4 days)	Fold Induction ATP [1, 4]	NFAT Luciferace units ([2]; 10 nM)	Fold Induction NFAT ([2]; 10 nM)	cAMP (pmol/well) ([3]; 10 nM (cAMP concentration))	Fold Induction cAMP ([3]; 10 nM)	ATP (nM ATP/well) ([1]; Table 2, 100 nM, 4 days)	cAMP (pmol/well) ([3]; 100 nM (cAMP concentration))	ATP (nM ATP/well) ([1]; Table 4, 1 nM)	NFAT Luciferace units ([2]; 1 nM)	further results
CC[C@H](C)[C@H](NC(=O)[C@H](Cc1ccc(O)cc1)NC(=O)[C@@H](NC(=O)[C@H](CCCNC(=N)N)NC(=O)[C@@H](N)CC(=O)O)C(C)C)C(=O)N[C@@H](Cc1cnc[nH]1)C(=O)N1CCC[C@H]1C(=O)N[C@@H](Cc1ccccc1)C(=O)O [Angiotensin II (human synthetic)]	3.1%	1.2 fold											ATP (nM ATP/well) ([1]; Table 4, concentration not given): 11.7 ± 0.6 nM ATP/well; Fold Induction ATP ([1]; Table 4, concentration not given, vs vehicle): 1.2* fold; NFAT Luciferace units ([2]; concentration not given): 12.0 ± 3.7 Luciferace units; Fold Induction NFAT ([2]; concentration not given): 2.1* fold
CC[C@H](C)[C@H](NC(=O)[C@H](CC(=O)O)NC(=O)[C@H](CC(C)C)NC(=O)[C@H](Cc1cnc[nH]1)NC(=O)[C@@H]1CSSC[C@H](N)C(=O)N[C@@H](CO)C(=O)N[C@H]2CSSC[C@H](NC(=O)[C@H](CCC(=O)O)NC(=O)[C@H](CCCCN)NC(=O)[C@H](CC(=O)O)NC(=O)[C@H](CCSC)NC(=O)[C@H](CC(C)C)NC(=O)[C@H](CO)NC(=O)[C@H](CO)NC2=O)C(=O)N[C@@H](C(C)C)C(=O)N[C@@H](Cc2ccc(O)cc2)C(=O)N[C@@H](Cc2ccccc2)C(=O)N1)C(=O)N[C@H](C(=O)N[C@@H](Cc1c[nH]c2ccccc12)C(=O)O)[C@@H](C)CC [Endothelin-1 (human, porcine)]			41.7 ± 7.2 nM ATP/well	2.5* fold	13.3 ± 1.3 Luciferace units	1.6** fold	3.64 ± 1.13 pmol/well	2.0* fold					% Doublecortin-positive cells (Adult neural stem cells; 10 nM): 5.0%; Fold Induction (Doublecortin-positive cells) (Adult neural stem cells; 10 nM): 2.0 fold; ATP (nM ATP/well) ([1]; Table 4; 10 nM; Porcine,)): 35.3 ± 3.7 nM ATP/well; Fold Induction ATP ([1]; Table 4; 10 nM; vs vehicle; Porcine,), 0.01 µM): 1.3* fold
CC[C@H](C)[C@H](NC(=O)CNC(=O)[C@H](CC(=O)O)NC(=O)[C@H](CO)NC(=O)[C@@H](N)Cc1cnc[nH]1)C(=O)N[C@@H](Cc1ccccc1)C(=O)N[C@H](C(=O)N[C@@H](CC(=O)O)C(=O)N[C@@H](CO)C(=O)N[C@@H](Cc1ccc(O)cc1)C(=O)N[C@@H](CO)C(=O)N[C@@H](CCCNC(=N)N)C(=O)N[C@@H](Cc1ccc(O)cc1)C(=O)N[C@@H](CCCNC(=N)N)C(=O)N[C@@H](CCCCN)C(=O)N[C@@H](CCC(N)=O)C(=O)N[C@@H](CCSC)C(=O)N[C@@H](C)C(=O)N[C@H](C(=O)N[C@@H](CCCCN)C(=O)N[C@@H](CCCCN)C(=O)N[C@@H](Cc1ccc(O)cc1)C(=O)N[C@@H](CC(C)C)C(=O)N[C@@H](C)C(=O)N[C@@H](C)C(=O)N[C@H](C(=O)N[C@@H](CC(C)C)C(=O)NCC(=O)N[C@@H](CCCCN)C(=O)N[C@@H](CCCNC(=N)N)C(=O)N[C@@H](Cc1ccc(O)cc1)C(=O)N[C@@H](CCCCN)C(=O)N[C@@H](CCC(N)=O)C(=O)N[C@@H](CCCNC(=N)N)C(=O)N[C@H](C(=O)N[C@@H](CCCCN)C(=O)N[C@@H](CC(N)=O)C(=O)N[C@@H](CCCCN)C(N)=O)C(C)C)C(C)C)C(C)C)[C@@H](C)O [PACAP-38]	5.2%	2.0 fold			6.2 ± 1.6 Luciferace units	1.7* fold			26.9 ± 3.7 nM ATP/well	0.13 ± 0.03 pmol/well			Fold Induction ATP ([1]; Table 2, 100 nM, 4 days, vs vehicle): 2.9** fold; ATP (nM ATP/well) ([1]; Table 4, 10 nM): 22.0 ± 0.9 nM ATP/well; Fold Induction ATP ([1]; Table 4, 10 nM, vs vehicle): 2.3*** fold; Fold Induction cAMP ([3]; 100 nM): 4.2** fold
CC[C@H](C)[C@H](NC(=O)[C@@H](NC(=O)[C@H](CC(=O)O)NC(=O)[C@H](CCC(N)=O)NC(=O)[C@H](Cc1c[nH]cn1)NC(=O)[C@@H]1CSSC[C@H](N)C(=O)N[C@@H](CO)C(=O)N[C@H]2CSSC[C@H](NC(=O)[C@H](CCC(=O)O)NC(=O)[C@H](CCCCN)NC(=O)[C@H](CC(=O)O)NC(=O)[C@H]([C@@H](C)O)NC(=O)[C@H](CCSC)NC(=O)[C@H](CC(=O)O)NC(=O)[C@H](CCCCN)NC2=O)C(=O)N[C@@H](CC(C)C)C(=O)N[C@@H](CC(N)=O)C(=O)N[C@@H](Cc2ccccc2)C(=O)N1)C(C)C)C(=O)N[C@@H](Cc1c[nH]c2ccccc12)C(=O)O [Sarafotoxin S6a] (H-CSCKDMTDKECLNFCHQDVIW-OH; disulfide 1-15, 3-11; N-terminus and C-terminus assumed)	3.2%	1.3 fold	43.3 ± 4.5 nM ATP/well	3.5*** fold			0.41 ± 0.06 pmol/well	1.4* fold			38.9 ± 3.2 nM ATP/well	6.3 ± 2.4 Luciferace units	Fold Induction ATP ([1]; Table 4, 1 nM, vs vehicle): 3.1*** fold; Fold Induction NFAT ([2]; 1 nM): 3.4* fold
CC[C@H](C)[C@H](NC(=O)[C@@H](NC(=O)[C@H](CC(=O)O)NC(=O)[C@H](CCC(N)=O)NC(=O)[C@H](Cc1c[nH]cn1)NC(=O)[C@@H]1CSSC[C@H](N)C(=O)N[C@@H](CO)C(=O)N[C@H]2CSSC[C@H](NC(=O)[C@H](CCC(=O)O)NC(=O)[C@H](CCCCN)NC(=O)[C@H](CC(=O)O)NC(=O)[C@H]([C@@H](C)O)NC(=O)[C@H](CCSC)NC(=O)[C@H](CC(=O)O)NC(=O)[C@H](CCCCN)NC2=O)C(=O)N[C@@H](CC(C)C)C(=O)N[C@@H](Cc2ccc(O)cc2)C(=O)N[C@@H](Cc2ccccc2)C(=O)N1)C(C)C)C(=O)N[C@@H](Cc1c[nH]c2ccccc12)C(=O)O [Sarafotoxin S6b] (H-CSCKDMTDKECLYFCHQDVIW-OH; disulfide 1-15, 3-11 (inferred); N-terminus and C-terminus assumed)									43.0 ± 7.8 nM ATP/well	0.43 ± 0.22 pmol/well			ATP (nM ATP/well) ([1]; Table 4, 100 nM): 43.0 ± 7.8 nM ATP/well; NFAT Luciferace units ([2]; 100 nM): 13.4 ± 7.0 Luciferace units
CC[C@H](C)[C@H](NC(=O)[C@@H](NC(=O)[C@H](CC(=O)O)NC(=O)[C@H](CCC(N)=O)NC(=O)[C@H](Cc1c[nH]cn1)NC(=O)[C@@H]1CSSC[C@H](N)C(=O)N[C@@H]([C@@H](C)O)C(=O)N[C@H]2CSSC[C@H](NC(=O)[C@H](CCC(=O)O)NC(=O)[C@H](CCC(=O)O)NC(=O)[C@H](CC(=O)O)NC(=O)[C@H]([C@@H](C)O)NC(=O)[C@H](CCSC)NC(=O)[C@H](CC(=O)O)NC(=O)[C@H](CC(N)=O)NC2=O)C(=O)N[C@@H](CC(C)C)C(=O)N[C@@H](CC(N)=O)C(=O)N[C@@H](Cc2ccccc2)C(=O)N1)C(C)C)C(=O)N[C@@H](Cc1c[nH]c2ccccc12)C(=O)O [Sarafotoxin S6c]			39.9 ± 6.6 nM ATP/well				0.21 ± 0.03 pmol/well				41.6 ± 4.8 nM ATP/well	8.3 ± 2.0 Luciferace units	
